Reference: patent EP0118205A1, “(5-(2-Aminomethyl-imidazol-1-yl)-1,3-dialkyl-1H-pyrazol-4-yl)(aryl)methanones and processes for their production” (WARNER-LAMBERT COMPANY, priority 1983, dated 1984)
Structures can show the parent of a compound that is named as a salt.

Test system: amnesia produced by an electroconvulsive shock
Assay: Reversal of amnesia produced by electroconvulsive shock (shelf-box foot shock memory test)
Format: in vivo, male mice (Carworth, CF-1 strain)
Settings: mice, oral
Method: The effectiveness of the aforementioned compounds is determined by the test given below which is designed to show the compound's ability to reverse amnesia produced by an electroconvulsive shock.
One hundred male mice (Carworth, CF-1 strain, 19-21 g at time of shipment) are divided into five groups of 20 mice each. Each mouse is placed, one at a time, on a small shelf attached to the outside wall of a test box. In this position the mouse is suspended in space. Therefore, the mouse is motivated to step from the shelf through a conveniently placed small hole into the interior of the box. As soon as the mouse has all four feet within the semidarkened interior of the box, the grid floor of the box is electrified (1.5 milliamps, 3 second duration) to produce a strong pain-fear reaction from the animal. About five seconds thereafter, the mouse is removed from the test box and placed in a group holding cage.
Two hours after the above training, the mice are given a single electroconvulsive shock produced by 20 milliamps delivered for 1.0 seconds through the ears. Immediately thereafter, the mice are returned to the holding cage.
Two hours after the convulsive treatment, the mice are administered orally through a […] with the chemical being assessed. Usually three doses of the chemical will be tested at a time.
One hour after the drug treatment, the mice are tested for memory of the painful foot shock received within the shelf-box apparatus. This testing is accomplished by once again placing each mouse on the small shelf attached to the test box. Any mouse that stays on the shelf for 60 seconds without entering the box is counted as remembering the painful foot shock received within the box five hours earlier. Any mouse entering the box within the 60-second period is counted as having amnesia for the painful event.
The five groups of mice are treated as follows:
The percentage of amnesia reversal is determined as follows for each drug group: [formula]
The following table reports the percent of amnesia reversal of orally administered [(5-(2-aminomethyl)-5-methyl-lH- imidazol-1-yl)-1,3-dimethyl-lH-pyrazol-4-yi](2-chlorophenyl)methanone dihydrochloride.

Row | SMILES | Percent Amnesia Reversal (dose 1 mg/kg) [%] | Percent Amnesia Reversal (dose 10 mg/kg) [%] | Percent Amnesia Reversal (dose 100 mg/kg) [%] | Percent Amnesia Reversal (Rating) (dose 1 mg/kg) | Percent Amnesia Reversal (Rating) (dose 10 mg/kg) | Percent Amnesia Reversal (Rating) (dose 100 mg/kg) | % Amnesia Reversal (dose 0.63 mg/kg) [%] | Rating (dose 0.63 mg/kg) | % Amnesia Reversal (dose 1.25 mg/kg) [%] | Rating (dose 1.25 mg/kg) | % Amnesia Reversal (dose 2.50 mg/kg) [%] | Rating (dose 2.50 mg/kg) | % Amnesia Reversal (dose 5.00 mg/kg) [%] | Rating (dose 5.00 mg/kg) | % Amnesia Reversal (dose 20.00 mg/kg) [%] | Rating (dose 20.00 mg/kg) | % Amnesia Reversal (dose 80.00 mg/kg) [%] | Rating (dose 80.00 mg/kg)
1 | Cc1nn(C)c(-n2c(CN3CCN(C)CC3)nc(C)c2C)c1C(=O)c1ccccc1Cl [Example 4, (2-Chlorophenyl)[1,3-dimethyl-5-[4,5-dimethyl-2-[(4-mthyl-piperazin-1-yl)methyl]-1H-imidazol-1-yl]-1H-pyrazol-4-yl]methanone] | 36 | 91 | 54 | C (25 to 39 percent (borderline = C)) | A (40 percent or more (active = A)) | A (40 percent or more (active = A)) |  |  |  |  |  |  |  |  |  |  |  | 
2 | Cc1nn(C)c(-n2ccnc2CN2CCCC2)c1C(=O)c1ccccc1Cl [Example 3, (2-chlorophenyl)-[1,3-dimethyl-5-[2-(1-pyrrolidinylmethyl)-1H-imidazol--yl]-1H-pyrazol-4-yl]methanone dihydrochloride] | 79 | 27 | 25 | A (40 percent or more (active = A)) | C (25 to 39 percent (borderline = C)) | C (25 to 39 percent (borderline = C)) |  |  |  |  |  |  |  |  |  |  |  | 
3 | Cc1nn(C)c(-n2c(C)cnc2CN(C)C)c1C(=O)c1ccccc1Cl [Example 2] | 64 | 64 | 85 | A (40 percent or more (active = A)) | A (40 percent or more (active = A)) | A (40 percent or more (active = A)) |  |  |  |  |  |  |  |  |  |  |  | 
4 | Cc1nn(C)c(-n2c(C)cnc2CN)c1C(=O)c1ccccc1Cl [Example 1, [5-((2-aminomethyl)-5-methyl-lH-imidazol-1-yl)-1,3-dimethyl-1H-pyrazol-4-yl] (2-chlorophenyl) methanone dihydrochloride] |  |  |  |  |  |  | 20 | N (0 to 29 percent (inactive = N)) | 40 | A (40 percent or more (active = A)) | 40 | A (40 percent or more (active = A)) | 62 | A (40 percent or more (active = A)) | 87 | A (40 percent or more (active = A)) | 44 | A (40 percent or more (active = A))
